Assay results from the supplement of paper PMC10307832.

Experiments:
Experiment in all cases: relative viability (nuclei count vs DMSO), 5 days (fraction); higher = more cells survive
[1] = compound: COc1cc(Nc2ncc3c(n2)-c2ccc(Cl)cc2C(c2c(F)cccc2OC)=NC3)ccc1C(=O)O [Alisertib] + CCNC(=O)c1noc(-c2cc(C(C)C)c(O)cc2O)c1-c1ccc(CN2CCOCC2)cc1 [Luminespib] (partner 0.01 µM)
How it was run: (§1)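 Relative viability divides the nuclei count in treated wells by that in vehicle wells. Lung cancer cell lines were seeded in 1536-well plates, dosed by pin tool the next day, and fixed and stained after 5 days in one step with final 0.05% Triton X-100, 1% formaldehyde and 1 ug/ml Hoechst. Dosing was a single drug or a fixed anchor-drug dose plus five library-drug doses (not always all listed) in √10 steps, and values are medians of duplicate plates imaged at 4×.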

[2] = compound: COc1cc(Nc2ncc3c(n2)-c2ccc(Cl)cc2C(c2c(F)cccc2OC)=NC3)ccc1C(=O)O [Alisertib] + Cc1cc(Nc2cc(N3CCN(C)CC3)nc(Sc3ccc(NC(=O)C4CC4)cc3)n2)n[nH]1 [Tozasertib] (partner 0.1 µM)
How it was run: as §1

[3] = compound: COc1cc(Nc2ncc3c(n2)-c2ccc(Cl)cc2C(c2c(F)cccc2OC)=NC3)ccc1C(=O)O [Alisertib] + Cc1nc(NC(=O)N2CCC[C@H]2C(N)=O)sc1-c1ccnc(C(C)(C)C(F)(F)F)c1 [Alpelisib] (partner 2 µM)
How it was run: as §1

[4] = compound: COc1cc(Nc2ncc3c(n2)-c2ccc(Cl)cc2C(c2c(F)cccc2OC)=NC3)ccc1C(=O)O [Alisertib] + Cc1nc(Nc2ncc(C(=O)Nc3c(C)cccc3Cl)s2)cc(N2CCN(CCO)CC2)n1 [Dasatinib] (partner 0.075 µM)
How it was run: as §1

Row | Cell Line | relative viability ([1]; first compound 0.005 µM) | relative viability ([1]; first compound 0.01581 µM) | relative viability ([1]; first compound 0.05 µM) | relative viability ([1]; first compound 0.1581 µM) | relative viability ([1]; first compound 0.5 µM) | relative viability ([2]; first compound 0.005 µM) | relative viability ([2]; first compound 0.01581 µM) | relative viability ([2]; first compound 0.05 µM) | relative viability ([2]; first compound 0.1581 µM) | relative viability ([2]; first compound 0.5 µM) | relative viability ([3]; first compound 0.005 µM) | relative viability ([3]; first compound 0.01581 µM) | relative viability ([3]; first compound 0.05 µM) | relative viability ([3]; first compound 0.1581 µM) | relative viability ([3]; first compound 0.5 µM) | relative viability ([4]; first compound 0.005 µM) | relative viability ([4]; first compound 0.01581 µM) | relative viability ([4]; first compound 0.05 µM) | relative viability ([4]; first compound 0.1581 µM) | relative viability ([4]; first compound 0.5 µM)
1 | NCI-H322M | 0.84 | 0.671 | 0.475 | 0.37 | 0.452 | 0.394 | 0.491 | 0.506 | 0.453 | 0.509 | 0.64 | 0.794 | 0.857 | 0.476 | 0.303 | 0.233 | 0.23 | 0.26 | 0.184 | 0.206
2 | NCI-H358 | 0.321 | 0.243 | 0.133 | 0.114 | 0.105 | 0.093 | 0.121 | 0.0917 | 0.0959 | 0.079 | 0.753 | 0.584 | 0.257 | 0.19 | 0.151 | 0.168 | 0.176 | 0.114 | 0.0896 | 0.0837
3 | NCI-H441 | 0.369 | 0.364 | 0.223 | 0.218 | 0.242 | 0.478 | 0.366 | 0.253 | 0.286 | 0.227 | 0.787 | 0.528 | 0.172 | 0.153 | 0.157 | 0.621 | 0.332 | 0.186 | 0.165 | 0.176
4 | NCI-H460 | 0.0403 | 0.0274 | 0.0247 | 0.0194 | 0.0287 | 0.477 | 0.428 | 0.0521 | 0.0419 | 0.0268 | 0.456 | 0.451 | 0.149 | 0.0179 | 0.0099 | 0.455 | 0.485 | 0.198 | 0.036 | 0.0218
5 | NCI-H520 | 0.237 | 0.202 | 0.197 | 0.209 | 0.193 | 0.372 | 0.418 | 0.376 | 0.409 | 0.357 | 0.966 | 0.766 | 0.429 | 0.323 | 0.273 | 0.218 | 0.199 | 0.148 | 0.177 | 0.159
6 | NCI-H596 | 0.839 | 0.977 | 1.05 | 0.505 | 0.412 | 0.825 | 0.878 | 0.779 | 0.592 | 0.314 |  | 0.478 | 0.481 | 0.351 | 0.172 | 0.593 | 0.688 | 0.626 | 0.53 | 0.342
7 | NCI-H647 | 0.151 | 0.132 | 0.0794 | 0.0983 | 0.0961 | 0.345 | 0.261 | 0.125 | 0.152 | 0.101 | 1.05 | 0.691 | 0.341 | 0.148 | 0.0808 | 0.186 | 0.16 | 0.104 | 0.0476 | 0.0381
8 | NCI-H650 | 0.685 | 0.579 | 0.239 | 0.126 | 0.198 | 0.653 | 0.481 | 0.253 | 0.185 | 0.165 | 1.15 | 0.947 | 0.513 | 0.237 | 0.205 | 0.429 | 0.479 | 0.21 | 0.194 | 0.169
9 | NCI-H661 | 0.94 | 0.875 | 0.611 | 0.377 | 0.296 | 0.342 | 0.377 | 0.386 | 0.406 | 0.39 | 0.579 | 0.669 | 0.552 | 0.31 | 0.235 | 0.57 | 0.675 | 0.416 | 0.258 | 0.297
10 | NCI-H727 | 0.366 | 0.325 | 0.557 | 0.24 | 0.169 | 0.411 | 0.598 | 0.486 | 0.494 | 0.404 | 0.663 | 0.515 | 0.434 | 0.302 | 0.244 | 0.425 | 0.357 | 0.397 | 0.243 | 0.242
11 | NCI-H838 | 0.386 | 0.343 | 0.252 | 0.135 | 0.133 | 0.272 | 0.262 | 0.231 | 0.195 | 0.201 | 0.904 | 0.993 | 0.484 | 0.315 | 0.224 | 0.289 | 0.298 | 0.263 | 0.239 | 0.189
12 | NCI-H1355 | 0.67 | 0.37 | 0.221 | 0.183 | 0.217 | 0.53 | 0.462 | 0.297 | 0.192 | 0.217 | 0.767 | 0.783 | 0.296 | 0.197 | 0.154 | 0.691 | 0.702 | 0.664 | 0.177 | 0.184
13 | NCI-H1395 | 0.78 | 0.561 | 0.566 | 0.342 | 0.343 | 0.725 | 0.708 | 0.488 | 0.478 | 0.391 | 0.968 | 1.23 | 0.994 | 0.558 | 0.362 | 0.384 | 0.376 | 0.451 | 0.329 | 0.296
14 | NCI-H1437 | 1.01 | 0.919 | 0.707 | 0.462 | 0.237 | 0.38 | 0.372 | 0.297 | 0.269 | 0.195 | 0.91 | 0.836 | 0.425 | 0.213 | 0.112 | 0.35 | 0.403 | 0.314 | 0.17 | 0.0967
15 | NCI-H1651 | 0.81 | 0.782 | 0.306 | 0.263 | 0.169 | 0.492 | 0.617 | 0.273 | 0.269 | 0.205 | 0.867 | 0.87 | 0.533 | 0.289 | 0.187 | 0.357 | 0.293 | 0.204 | 0.151 | 0.163
16 | NCI-H1666 | 0.879 | 0.801 | 0.639 | 0.471 | 0.379 | 0.625 | 0.412 | 0.365 | 0.391 | 0.355 | 1.05 | 0.721 | 0.455 | 0.268 | 0.224 | 0.693 | 0.695 | 0.527 | 0.336 | 0.323
